The source of these data is patent US5998390A, “Combination of bisphosphonate and tetracycline” (The Research Foundation of State University of New York, priority 1998, dated 1999).

One assay relates to osteoclast gelatinase. Kind of assay: Inhibition of osteoclast gelatinase ([3H-methyl] gelatin degradation by culture media). The format is biochemical, chicken. As to the method:
Post-incubation media from cultured chicken osteoclasts were partially-purified, then incubated with [^3 H-methyl] gelatin for 4 hours at 37° C. in the presence of 1.2 mM APMA to activate any latent Pro-gelatinase. The incubations were carried out in the presence (or absence) of several different concentrations (0.001-1000 μM) of a bisphosphonate, Didronel (Etidronic Acid); where appropriate, CMT-1 was added at a final concentration of 50 μM. After the 4 hour incubation, the reaction was stopped by the addition of 45% Trichloroacetic acid and carrier gelatin, the mixture was centrifuged, and aliquots of the supernatant, containing the radiolabeled gelatin degradation fragments, were counted in a liquid scintillation spectrometer.

Assay [1] concerns the target T1, Recombinant human MT1 -MMP (MMP-14) (Homo sapiens, UniProt P50281).
T1 construct: purchased In Vitro-Tek, Berlin, Germany
Kind of assay: β-casein degradation by MT1-MMP. Format: biochemical. To be noted: single agent, 2 μM (suboptimal). The method, then: Also, suboptimal inhibitory doses of CMT's and bisphosphonate, alone and in combination, were tested on pure human recombinant MT1 -MMP and MMP-9 activities using a β-casein-degradation assay.
Recombinant human ([…]) MT1 -MMP (also called MMP-14) (In Vitro-Tek, Berlin, Germany) was pretreated with buffer (none), 2 μM CMT-3 and 2 μM bisphosphonate clodronate (clodrinate) and combinations of 2 μM CMT-3 and 2 μM clodrinate for 1 h at 37° C. Subsequently, substrate β-casein (52 μM) was added to the incubation mixtures, and incubations continued for 60 min at 37° C.

The test system of assay [2] is LPS-injected rats. Kind of assay: Tooth mobility in LPS-induced periodontitis rat model. Format: in vivo. To be noted: for effect on tooth mobility / effect on pathologic tooth mobility: Examples 1 and 2; for effect on pathologic tooth mobility: 2 mg; for reduction in tooth mobility: Example 3, day 7, vs untreated LPS-injected rats, CMT-8 1 mg/day oral, clodronate 1 mg/week s.c., single agents not statistically significant, combination p<0.05; for tooth mobility relative to the level in saline-injected control rats: Example 3, single agents at sub-optimal dose. The text has this:
(§1) The activity of combinations of various tetracyclines and bisphosphonates was investigated in vivo. […] This procedure produces marked inflammation in the periodontal tissues and induces elevated levels of tissue-destructive matrix metalloproteinases (MMPs) and serine proteinases such as elastase in the gingiva leading to severe alveolar bone resorption and bone loss around the affected teeth, all within the 7-day experimental protocol. In brief, adult male rats with this experimentally-induced inflammatory disease were either left untreated, or treated with sub-optimal doses of (1) a CMT by itself; (II) a bisphosphonate by itself, or (III) a combination of (I) and (II). At the end of the experimental protocol, tooth mobility and alveolar bone loss, and levels of various tissue destructive MMP collagenases and gelatinases and serine enzymes in the gingiva, were measured.
(§2) For in vivo Examples, Thirty male Sprague-Dawley rates were distributed into 5 groups as follows:
Group 1: Normal. Saline injected+placebo therapy (CMC)
Group 2: LPS. LPS injected+placebo (CMC)
Group 3: CMT-8. LPS injected+CMT-8 (1 mg/day)
Group 4: Clodronate. LPS injected+Clodronate (1 mg/week)
Group 5: Combo. LPS+CMT-8 (1 mg/day)+Clodronate (1 mg/week)
(§3) The treatments were administered by oral gavage once per day (CMT-8) throughout the entire 7 day period, or by a single subcutaneous injection (clodrinate).
(§4) LPS (lipopolysaccharide)-induced periodontitis rat model: Twenty four hours before treatment, the rats were injected into the upper anterior gingivae and into the palatal papillae between 1st and 2nd upper molars with 10 μL of LPS (1 mg/ml) or saline solution, for a total of 10 μg LPS per site injected. The LPS injections were repeated every other day to complete the three injections.
(§5) On day 7, all rats were anesthetized, blood samples were collected by cardiac puncture and rats were sacrificed. Tooth mobility was checked and the gingival tissue was dissected and stored at -80° C. for subsequent enzyme analysis. The jaws were defleshed for bone loss determination.
(§6) The first experiment was designed to select sub-optimal doses of both CMT-8 (a chemically-modified, non-antibacterial tetracycline) and clodronate (a bisphosphonate) in the endotoxin-induced bone loss model. Groups of rats (n=5-6 rats/group) were anesthetized and injected directly into the gingival tissues with either saline (control group) or with LPS endotoxin every other day over a 7-day time period. Twenty-four hours after the first injection, groups of rats were administered by oral gavage either 0, 0.5mg, 1 mg, or 2mg CMT-8 daily for the next 6 days. At the end of the experiment, the rats were anesthetized, blood was drawn by intracardiac puncture, the rats were euthanized and the gingival tissues dissected for enzyme analysis. In addition, tooth mobility was scored and, after defleshing the jaws, alveolar bone loss around the teeth was scored morphometrically using a computer-assisted system.
(§7) In a third experiment, 30 adult male rats were distributed into the following experimental groups: saline-injected group; groups injected with endotoxin and then administered no drug, CMT-8 alone (1 mg/day), clodronate alone (1 mg/week), or a combination of the same sub-optimal doses of both drugs. The experiment was terminated on day 7. As described above, the gingival tissues were dissected, extracted and the partially-purified extracts analyzed for neutral proteinase (elastase and matrix metalloproteinase) activities, and both tooth mobility and alveolar bone loss were assessed.
In FIG. 1, tooth mobility is based on the following scoring system:
1=slight movement (vestibule-palatal)
2=medium movement (vestibule-palatal)
3=severe movement (vertical mobility in and out of socket)

Another assay concerns collagenase. The assay is described as follows: Gingival collagenase activity ([3H-methyl] collagen substrate, SDS-PAGE/fluorography) in extracts from treated LPS-injected rats. As to conditions: Example 3; total collagenase after 1.2 mM APMA activation; vs untreated LPS-injected rats; CMT-8 1 mg/day, clodronate 1 mg/week. The format is in vivo, rat. The method, then:
as §4, §5
In a third experiment, 30 adult male rats were distributed into the following experimental groups: saline-injected group; groups injected with endotoxin and then administered no drug, CMT-8 alone (1 mg/day), clodronate alone (1 mg/week), or a combination of the same sub-optimal doses of both drugs. The experiment was terminated on day 7. As described above, the gingival tissues were dissected, extracted and the partially-purified extracts analyzed for neutral proteinase (elastase and matrix metalloproteinase) activities, and both tooth mobility and alveolar bone loss were assessed. […]

Assay [3] relates to LPS-injected rats. The assay is described as follows: Alveolar bone loss in LPS-induced periodontitis rat model (morphometric analysis of defleshed jaws). As to conditions: for effect on pathologic bone loss: 2 mg. Format: in vivo.
Text: as §1, §2, §3, §4, §5, §6, §7

Where [4] appears, read: 0.5 mg, CMT-8 daily oral gavage, clodronate single subcutaneous injection.
Setting [5] is: 1 mg (selected sub-optimal dose).
Setting [6] is: CMT-8 daily oral gavage, clodronate single subcutaneous injection.
[7] abbreviates: 0.5 mg, CMT-8 daily oral gavage, clodronate single subcutaneous injection, Examples 1 and 2.
[8] abbreviates: 1 mg (selected sub-optimal dose), Examples 1 and 2.
Setting [9] is: CMT-8 daily oral gavage, clodronate single subcutaneous injection, Examples 1 and 2.
[10] abbreviates: Example 3, day 7, CMT-8 1 mg/day oral, clodronate 1 mg/week s.c.

With `CC1(O)c2cccc(O)c2C(=O)C2=C(O)C3(O)C(=O)C(C(N)=O)=C(O)CC3CC21` (stereo not drawn) [CMT-1, 4-de(dimethylamino)tetracycline], the “inhibition of osteoclast gelatinase activity” value in the assay with osteoclast gelatinase (50 μM CMT-1, 4 hours at 37° C., 1.2 mM APMA) is “about 79%”.

In the case of `NC(=O)C1=C(O)C2(O)C(=O)C3=C(O)c4c(O)cccc4CC3CC2CC1=O` (stereo not drawn) [CMT-3, 6-demethyl-6-deoxy-4-de(dimethylamino)tetracycline], the “inhibition of β-casein degradation by MT1-MMP” value in assay [1] was “relative slight inhibition”.

`CC1c2cccc(O)c2C(O)=C2C(=O)[C@]3(O)C(O)=C(C(N)=O)C(=O)C[C@@H]3[C@@H](O)[C@@H]21` (stereo partly drawn) [CMT-8, 6-deoxy-5α-hydroxy-4-de(dimethylamino)tetracycline]: the “effect on tooth mobility” value was “no significant effects” with LPS-injected rats [2] (setting [4]) and “either no, or barely detectable beneficial effects” with LPS-injected rats [2] (setting [5]). In addition, the “effect on pathologic tooth mobility” value in the assay on LPS-injected rats [2] (setting [6]) is “essentially returned the pathologic tooth mobility and bone loss, induced by bacteria endotoxin, to control levels”. The “reduction in tooth mobility” value with LPS-injected rats [2] is listed as 18%. In the assay on LPS-injected rats [2], the “tooth mobility relative to the level in saline-injected control rats” value is recorded as “more than twice the level seen in the control rats”. Moreover, the “reduction of gingival collagenase activity” value in the assay on collagenase was 22-31%. Moreover, the “effect on alveolar bone loss” value was “no significant effects” in the assay on LPS-injected rats [3] (setting [7]); “either no, or barely detectable beneficial effects” in the assay with LPS-injected rats [3] (setting [8]); “reduced alveolar bone loss only slightly, if at all” with LPS-injected rats [3] (setting [10]). For the same compound, the “effect on pathologic bone loss” value in the assay on LPS-injected rats [3] (setting [9]) was “essentially returned the pathologic tooth mobility and bone loss, induced by bacteria endotoxin, to control levels”.

For the compound `CC(O)(P(=O)(O)O)P(=O)(O)O` [Didronel, Etidronic Acid], the “inhibition of osteoclast gelatinase activity” value with osteoclast gelatinase (Didronel at 0.001, 0.1, 10, and 1000 μM final concentrations) is “did not show any detectable inhibition”.

With `O=P(O)(O)C(Cl)(Cl)P(=O)(O)O` [clodronate, dichloromethane diphosphonic acid], the “effect on tooth mobility” value is given as “no significant effects” with LPS-injected rats [2] (setting [4]) and “either no, or barely detectable beneficial effects” in the assay with LPS-injected rats [2] (setting [5]). For the same compound, the “effect on pathologic tooth mobility” value in the assay with LPS-injected rats [2] (setting [6]) was “essentially returned the pathologic tooth mobility and bone loss, induced by bacteria endotoxin, to control levels”. Further, the “reduction in tooth mobility” value with LPS-injected rats [2] is 18%. In the assay with LPS-injected rats [2], the “tooth mobility relative to the level in saline-injected control rats” value was “more than twice the level seen in the control rats”. Moreover, the “reduction of gingival collagenase activity” value in the assay on collagenase is on record as 22-31%. Besides, the “effect on alveolar bone loss” value in the assay on LPS-injected rats [3] (setting [7]) is “no significant effects”; in the assay on LPS-injected rats [3] (setting [8]) it was “either no, or barely detectable beneficial effects”; with LPS-injected rats [3] (setting [10]), “reduced alveolar bone loss only slightly, if at all”. Besides, the “effect on pathologic bone loss” value in the assay on LPS-injected rats [3] (setting [9]) was “essentially returned the pathologic tooth mobility and bone loss, induced by bacteria endotoxin, to control levels”. Also, the “inhibition of β-casein degradation by MT1-MMP” value in assay [1] is on record as “relative slight inhibition”.
